≈ marks a conversion by molar mass, not a printed value. Where “and” joins values, the source holds several entries; their conditions need not be identical. Equal values may be shown once. Marks after values point to notes of the source that are not given here.
Key:
[1] = Singlet oxygen scavenging; type: biochemical
Experimental: (§1) The ROS scavenging ability of DBME was determined using multiple stable ROS radical scavenging assays, such as hydroxyl, superoxide, hypochlorous radical, singlet oxygen and hydrogen peroxide assays by standard procedures.

[2] = test system: WI-38 cells; test: WST-1 cytotoxicity assay; type: cell-based, human; conditions: 48 hours; for Cytotoxicity assay IC50: WST-1; for cytotoxicity against normal cells (in words): 0-120 μg/ml
Experimental: (§2) The human lung fibroblast (WI-38) cell line was purchased from the National Centre for Cell Science (NCCS), India. Cells were grown in DMEM supplemented with 10% (v/v) fetal bovine serum (FBS), 100 U/ml penicillin G, 50 μg/ml gentamycin sulfate, 100 μg/ml streptomycin and 2.5 μg/ml amphotericin B. The cell line was maintained in a CO2 incubator at 37°C in a humidified atmosphere containing 5% CO2. Cell proliferation and cell viability were quantified using the WST-1 Cell Proliferation Reagent, Roche diagnostics, according to previously described methods. […] Briefly, WI-38 cells (1 × 10^4 cells/well) were treated with DBME, purpurin, catechin, tannic acid, reserpine, methyl gallate or rutin at doses ranging from 0–120 μg/ml for 48 hours in 96-well culture plates. After treatment, 10 μl of the WST-1 cell proliferation reagent was added to each well followed by 2 hours of incubation at 37°C. Cell proliferation and viability were quantified by measuring the absorbance at 460 nm using a microplate ELISA reader […] EX (Thermo Electron Corporation, USA).

[3] = Iron chelation assay (Fe2+-ferrozine complex formation); type: biochemical; conditions: for in vitro iron chelation ability (in words): Fe2+-ferrozine complex; for Iron chelating activity IC50: Fe2+-ferrozine, HEPES pH 7.2
Experimental: The Fe^2+ chelating activity of DBME, catechin, methyl gallate, purpurin, reserpine, rutin and tannic acid was evaluated according to standard methods. HEPES buffer (20 mM, pH 7.2), DBME (0–120 μg/ml) and a positive control EDTA (0–20 μg/ml) were separately added to a 12.5 μM ferrous sulfate solution, and 75 μM ferrozine was added to start the reaction. The mixture was shaken vigorously and left standing for 20 min at room temperature. Next, the absorbance was measured at 562 nm. All tests were performed six times.

[4] = DPPH radical scavenging assay; type: biochemical
Experimental: The total antioxidant capacity of DBME was evaluated by an ABTS•^+ radical cation decolorization assay in comparison to a trolox standard and 2,2-diphenyl-1-picrylhydrazyl (DPPH) radical scavenging assay. The reducing power of DBME was determined using a previously described method.

[5] = Hypochlorous acid scavenging; type: biochemical
Experimental: as §1

[6] = test system: iron overloaded mice; test: Liver antioxidants (SOD, CAT, GST, GSH) in iron overloaded mice; type: in vivo, Swiss albino mice; conditions: D: desirox 20 mg/kg b.w. oral 21 days
Experimental: (§3) Mice were divided into six groups of six mice each. One group was labeled as blank (B) and received normal saline. The other five groups received five intraperitoneal injections of iron-dextran at a dose of 100 mg/kg b.w. (one dose every two days). One iron-dextran group (C) was administered normal saline, and the other four groups were orally treated with either 50 mg/kg b.w. (S50), 100 mg/kg b.w. (S100), 200 mg/kg b.w. (S200) DBME or 20 mg/kg b.w. desirox (D) for 21 days beginning on the day following the first iron-dextran injection.
(§4) After treatment, mice were fasted overnight on the 21st day and anesthetized with ethyl ether. Blood was collected by cardiac puncture. Serum from the blood samples was separated using a cooling centrifuge and stored at -80°C until analysis. The liver was washed with ice-cold saline and divided into three parts. One major portion of the liver was cut, weighed and homogenized in 10 volumes of 0.1 M phosphate buffer (pH 7.4) containing 5 mM EDTA and 0.15 M NaCl. The sample was centrifuged at 8,000 g for 30 min at 4°C. The protein concentration in the supernatant was estimated according to Lowry's method using BSA as a standard. The remaining samples were stored at -80°C until further analysis. Another portion of the liver was weighed and digested using an equivolume mixture of sulfuric acid and nitric acid for iron content analysis. A final liver sample was used for histopathological studies.
Superoxide dismutase (SOD), catalase (CAT) activity, glutathione-S-transferase (GST) and reduced glutathione (GSH) levels were assayed according to previously reported methods.

[7] = test system: iron overloaded mice; test: Serum markers (ALAT, ASAT, ALP, bilirubin) in iron overloaded mice; type: in vivo, Swiss albino mice; conditions: D: desirox 20 mg/kg b.w. oral 21 days
Experimental: as §3, §4
Alanine amino transferase (ALAT), aspartate amino transferase (ASAT), and bilirubin levels were measured in serum samples using commercial kits from Merck, Mumbai, India. Serum alkaline phosphatase (ALP) was estimated using a kit supplied by Sentinel diagnostics, Italy. The serum ferritin level was measured using an enzyme-linked immunosorbent assay (Monobind Inc., USA) according to the manufacturer’s instructions.

[8] = Peroxynitrite scavenging; type: biochemical
Experimental: The RNS scavenging activity of DBME was determined using nitric oxide and peroxynitrite radical scavenging assays.

[9] = Hydroxyl radical scavenging; type: biochemical
Experimental: as §1

[10] = WST-1 cytotoxicity assay; type: cell-based, human; conditions: human, WI-38 human lung fibroblast cells, WI-38 cells, WST-1
Experimental: as §2

[11] = Superoxide anion scavenging; type: biochemical
Experimental: as §1

[12] = Hydrogen peroxide scavenging; type: biochemical
Experimental: as §1

Compound: O=C(O)CCCC[C@@H]1CCSS1 (racemic) [Lipoic acid, lipoic acid]
- Singlet oxygen scavenging IC50 [1]: 46.16 ± 1.16 µg/mL

Compound: Oc1cc(O)c2c(c1)OC(c1ccc(O)c(O)c1)C(O)C2 (single isomer, unassigned; (+)) [Catechin, (+) catechin]
- Cytotoxicity assay IC50 [2]: 753.56 ± 31.99 µg/mL
- in vitro iron chelation ability (in words) [3]: failed to chelate iron
- Iron chelating activity IC50 [3]: 1940.22 ± 179.61 µg/mL

Compound: O=C1O[C@H]([C@@H](O)CO)C(O)=C1O [Ascorbic acid, ascorbic acid]
- DPPH IC50 [4]: 5.29 ± 0.28 µg/mL
- Hypochlorous acid (HOCl) scavenging IC50 [5]: 235.96 ± 5.75 µg/mL

Compound: O=C(O)c1ccc(-n2nc(-c3ccccc3O)nc2-c2ccccc2O)cc1 [D, desirox]
- CAT % Change ([6]; change vs B group): 26.09%
- GSH % Change ([6]; change vs B group): 5.13%
- GST % Change ([6]; change vs B group): 35.42%
- SOD % Change ([6]; change vs B group): 15.31%
- CAT ([6]; iron overloaded mice): 16.14 ± 3.87 ^c ^f Unit/mg protein and 16.14 ± 3.87^cf Unit/mg protein
- GSH ([6]; iron overloaded mice): 0.48 ± 0.02 ^a ^f μg/mg protein and 0.48 ± 0.02^af μg/mg protein
- GST ([6]; iron overloaded mice): 3.72 ± 0.36 ^c ^f Unit/mg protein and 3.72 ± 0.36^cf Unit/mg protein
- SOD ([6]; iron overloaded mice): 0.47 ± 0.05 ^a ^f Unit/mg protein and 0.47 ± 0.05^af Unit/mg protein
- ALAT % Change ([7]; change vs B group): 52.79%
- ALP % Change ([7]; change vs B group): 84.44%
- ASAT % Change ([7]; change vs B group): 17.36%
- Bilirubin % Change ([7]; change vs B group): 10.97%
- ALAT ([7]; iron overloaded mice): 23.29 ± 1.09 ^c ^f Unit/l and 23.29 ± 1.09^cf Unit/l
- ALP ([7]; iron overloaded mice): 61.01 ± 2.44 ^c ^f Unit/l and 61.01 ± 2.44^cf Unit/l
- ASAT ([7]; iron overloaded mice): 79.35 ± 4.36 ^a ^f Unit/l and 79.35 ± 4.36^af Unit/l
- Bilirubin ([7]; iron overloaded mice): 1.68 ± 0.15 ^f mg/dl

Compound: O=C(O)CN(CCN(CC(=O)O)CC(=O)O)CC(=O)O [EDTA, Ethylenediamine tetraacetic acid]
- Iron chelating activity IC50 [3]: 1.27 ± 0.05 µg/mL

Compound: O=C(O)c1cc(O)c(O)c(O)c1 [Gallic acid, gallic acid]
- Peroxynitrite (ONOO-) scavenging IC50 [8]: 876 ± 570 µg/mL

Compound: OC[C@@H](O)[C@@H](O)[C@H](O)[C@H](O)CO [Mannitol, mannitol]
- Hydroxyl radical (OH) scavenging IC50 [9]: 571.45 ± 20.12 µg/mL

Compound: COC(=O)c1cc(O)c(O)c(O)c1 [Methyl gallate, methyl gallate]
- IC50 at 48 h [10]: 344 ± 31.3 µg/mL (≈ 1870 µM)
- Iron chelating activity IC50 [3]: 70.86 ± 1.20 µg/mL

Compound: O=C1c2ccccc2C(=O)c2c(O)c(O)cc(O)c21 [Purpurin, purpurin]
- IC50 at 48 h [10]: 1470 ± 291 µg/mL (≈ 5730 µM)
- cytotoxicity against normal cells (in words) [2]: negligible cytotoxicity
- Iron chelating activity IC50 [3]: 252.37 ± 4.08 µg/mL

Compound: O=c1c(O)c(-c2ccc(O)c(O)c2)oc2cc(O)cc(O)c12 [Quercetin, quercetin]
- Superoxide anion scavenging IC50 [11]: 42.06 ± 1.35 µg/mL

Compound: COC(=O)[C@H]1[C@H]2C[C@@H]3c4[nH]c5cc(OC)ccc5c4CCN3C[C@H]2C[C@@H](OC(=O)c2cc(OC)c(OC)c(OC)c2)[C@@H]1OC [Reserpine, reserpine]
- IC50 at 48 h [10]: 44.8 ± 2.06 µg/mL (≈ 73.6 µM)
- cytotoxicity against normal cells (in words) [2]: most toxic compound
- in vitro iron chelation ability (in words) [3]: failed to chelate iron
- Iron chelating activity IC50 [3]: 3095.13 ± 438.00 µg/mL

Compound: C[C@@H]1O[C@@H](OC[C@H]2O[C@@H](Oc3c(-c4ccc(O)c(O)c4)oc4cc(O)cc(O)c4c3=O)[C@H](O)[C@@H](O)[C@@H]2O)[C@H](O)[C@H](O)[C@H]1O [Rutin, rutin]
- IC50 at 48 h [10]: 1230 ± 195 µg/mL (≈ 2020 µM)
- cytotoxicity against normal cells (in words) [2]: negligible cytotoxicity

Compound: CC(=O)C(=O)[O-].[Na+] [Sodium pyruvate, sodium pyruvate]
- Hydrogen peroxide (H2O2) scavenging IC50 [12]: 3240 ± 300 µg/mL

Compound: tannic acid
- Cytotoxicity assay IC50 [2]: 581.03 ± 64.97 µg/mL
- in vitro iron chelation ability (in words) [3]: most effective chelator
- Iron chelating activity IC50 [3]: 50.22 ± 0.85 µg/mL

Source: PMC4444084, “An Antioxidant Extract of the Insectivorous Plant Drosera burmannii Vahl. Alleviates Iron-Induced Oxidative Stress and Hepatic Injury in Mice” (PLoS ONE, 2015)
